The source of these data is patent publication US20250129021A1, “SMALL MOLECULE PROTEIN SYNTHESIS MODULATORS” (Interdict Bio, Inc., priority 2023, published 2025).

A value given as a limit tells only on which side of the number the result lay.

Common to all, as to assay type: biochemical
Holding throughout (conditions): HeLa S3 lysate, sfGFP/mCherry ratio, 2 hrs at 30° C.

Experiment [1] concerns ALK. Briefly: In vitro transcription-translation (IVTT) assay, ALK reporter. The text has this: (§1) All reporter constructs have been cloned into the pT7CFE1-CHis plasmid (ThermoFisher #88860) using Gibson assembly procedures (NEB #E2611L). The parental pT7CFE1-CHis plasmid contains an EMCV IRES at the 5′UTR for translation initiation, a multiple-cloning site (MCS) for gene insertion, an optional C-terminal His-epitope tag, and polyA sequence in the 3′UTR to regulate mRNA stability. All reporters are designed to be inserted at the MCS to include a red fluorescent protein (mCherry), P2A self-cleaving peptide which releases the preceding mCherry protein product, and a fusion open reading frame containing a 3×FLAG epitope, a peptide sequence of interest (TEST), and green fluorescent protein (sfGFP).
(§2) Construct Plasmid Preparation: All plasmids are isolated from MACH1 cells (ThermoFisher) grown overnight in ampicillin-containing luria broth, and purified using ZymoPure Express Plasmid Midiprep Kit (Zymo Research). Constructs are sequenced verified and diluted to a working concentration of 110 ng/μL.
(§3) HeLa S3 Lysate Preparation: HeLa S3 cell pellets are acquired from Ipracell/Ipratech (Belgium) and shipped as 4 mL frozen cell pellets on dry ice for storage at −80° C. until use. The procedure for lysate preparation is as follows. Prepare 1× Lysis Buffer, cold and stored on ice:
(§4) Each preparation takes 8 cell pellets (4 ml packed volume each, approximately 1.0×10^9 cells per pellet). Thaw cell pellets from −80° C. on ice for 90 mins. Lay pellets horizontally on top of the ice and rotate every 30 mins to ensure even thawing. Once thawed, add 4 mL of cold lysis buffer to each pellet, and using a serological pipet, gently pipet up and down to break up clumps. Incubate resuspended cells in ice for an additional 30 mins (plunged into ice). During 30 min incubation, rinse and RNase-zap (Ambion) glass dounces (use loose pestle “A”), gently dry and place on ice until needed. Prepare RNase-free Eppendorf tubes for spinning and for batch storage. Add batch labels to 1.5-1.7 mL RNase-free microcentrifuge tubes (labeling scheme below). Each batch will have an extra 1.5-1.7 mL RNase-free microcentrifuge tube for 40 μL of lysate, label the top of this tube (labeling scheme below). After 30 min incubation, transfer all 8 mL of cell pellet to dounce. Cell lysis is complete after douncing 100 times. Aliquot cell lysis into 1.5-1.7 mL temporary-microcentrifuge tubes. Place tubes in centrifuge with “fins” out, and spin at 1,200×g for 5 mins. After the first spin use a 1 mL pipet to resuspend each tube and repeat spin. This acts as an additional lysis step, is more vigorous and increases lysate yield. During second spin get liquid N2 and a fresh conical tube on ice. After spin is complete, transfer supernatant (lysate) from microcentrifuge tubes into the 50 mL conical tube and keep on ice. Repeat steps 10-14 for all other cell pellets until completed. Once all cell lysate has been transferred to the 50 mL conical tube pipet to mix so the solution is homogenous. Transfer 1 mL of lysate into batch-labeled microcentrifuge tubes and flash freeze in liquid nitrogen. Be sure to pipet up and down to mix throughout transfer step. Place all tubes in the […] for long-term storage.
(§5) In vitro transcription-translation assay setup: Each assay includes a master mix containing lysate and shared components, a 96-well plate containing compound titrations for testing, a 96-well DNA plate with reporter constructs to be tested, 96-well skirted PCR plates, and 96-well flat-bottom, black, fluorescent assay plates. […]

Experiment [2] deals with KRAS G12D. As to the kind of experiment: In vitro transcription-translation (IVTT) assay, KRAS G12D reporter.
From the text: as §1, §2, §3, §4, §5

The subject of experiment [3] is MYC. As to the kind of experiment: In vitro transcription-translation (IVTT) assay, MYC reporter. Summed up:
(§6)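 Reporter: mCherry, P2A, then 3×FLAG-target peptide-sfGFP fusion, IRES-initiated; HeLa S3 lysate IVTT; cpd dilutions 30 μM−0.1 μM half-log in 100% DMSO (dilution-plate conc); DNA added last; 2 h, 30° C; PBS quench.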

In experiment [4] the test system is CCND1. Briefly: In vitro transcription-translation (IVTT) assay, CCND1 reporter. Summed up: as §6
Experiment [5] relates to MCL-1. As to the kind of experiment: In vitro transcription-translation (IVTT) assay, MCL-1 reporter. Summed up:
as §6

What is called IC50 is the concentration that gives 50% inhibition.

Regarding `COc1ccc(C[C@H]2NC[C@H](O)[C@H]2OC(=O)NNCc2ccno2)cc1` [V187668, 1-{[(2R,3S,4S)-4-hydroxy-2-[(4-methoxyphenyl)methyl]pyrrolidin-3-yl]oxy}-N′-(1,2-oxazol-5-ylmethyl)formohydrazide; trifluoroacetic acid], the figures for the IC50 in experiment [1] and in experiment [2] were less than 10 µM and 10 to 20 µM, respectively.

Turning to `COc1ccc(C[C@H]2NC[C@H](O)[C@H]2OC(=O)Nc2ccccc2)cc1` [V187666, (2R,3S,4S)-4-hydroxy-2-[(4-methoxyphenyl)methyl]pyrrolidin-3-yl N-phenylcarbamate], the IC50 in experiment [1] and in experiment [2] was greater than 30 µM in each case.

`COc1ccc(C[C@H]2NC[C@H](O)[C@H]2OC(=O)Nc2nnc(CO)s2)cc1` [V187598, (2R,3S,4S)-4-hydroxy-2-[(4-methoxyphenyl)methyl]pyrrolidin-3-yl N-[5-(hydroxymethyl)-1,3,4-thiadiazol-2-yl]carbamate; trifluoroacetic acid]: the IC50 in experiment [1] and in experiment [2] was less than 10 µM in each case.

`CCC(=O)NNC(=O)O[C@@H]1[C@@H](O)CN[C@@H]1Cc1ccc(OC)cc1` [V187739, 1-{[(2R,3S,4S)-4-hydroxy-2-[(4-methoxyphenyl)methyl]pyrrolidin-3-yl]oxy}-N′-propanoylformohydrazide; trifluoroacetic acid]: the IC50 was less than 10 µM in experiment [1] and 10 to 20 µM in experiment [2].

As for `COc1ccc(C[C@H]2NC[C@H](O)[C@H]2OC(=O)NCCO)cc1` [V187584, (2R,3S,4S)-4-hydroxy-2-[(4-methoxyphenyl)methyl]pyrrolidin-3-yl N-(2-hydroxyethyl)carbamate], the IC50 in experiment [1] was less than 10 µM; in experiment [2], 10 to 20 µM.

On to `COc1ccc(C[C@H]2NC[C@H](O)[C@H]2OC(=O)NCCN2CCC3(C2)CC(F)(F)C3)cc1` [V187643, (2R,3S,4S)-4-hydroxy-2-[(4-methoxyphenyl)methyl]pyrrolidin-3-yl N-(2-{2,2-difluoro-6-azaspiro[3.4]octan-6-yl}ethyl)carbamate], for which the IC50 is 20 to 30 µM in experiment [1] and greater than 30 µM in experiment [2].

With `COc1ccc(C[C@H]2NC[C@H](O)[C@H]2OC(=O)Nc2nnc(CN(Cc3ccccc3)Cc3ccccc3)s2)cc1` [V187551, (2R,3S,4S)-4-hydroxy-2-[(4-methoxyphenyl)methyl]pyrrolidin-3-yl N-{5-[(dibenzylamino)methyl]-1,3,4-thiadiazol-2-yl}carbamate], the IC50 in experiment [3] and in experiment [2] was greater than 30 µM in each case.

For the compound `COc1ccc(C[C@H]2NC[C@H](O)[C@H]2OC(=O)NCCN2CC(O)(C#N)C2)cc1` [V187567, (2R,3S,4S)-4-hydroxy-2-[(4-methoxyphenyl)methyl]pyrrolidin-3-yl N-[2-(3-cyano-3-hydroxyazetidin-1-yl)ethyl]carbamate], the IC50 was 20 to 30 µM in experiment [4], 10 to 20 µM in experiment [3] and 20 to 30 µM in experiment [2].

Turning to `COc1ccc(C[C@H]2NC[C@H](O)[C@H]2OC(=O)NCCN2CC(O)(CN)C2)cc1` [V187581, (2R,3S,4S)-4-hydroxy-2-[(4-methoxyphenyl)methyl]pyrrolidin-3-yl N-{2-[3-(aminomethyl)-3-hydroxyazetidin-1-yl]ethyl}carbamate; trifluoroacetic acid], the IC50 in experiment [3] was 20 to 30 µM; in experiment [2] it was greater than 30 µM.

`COc1ccc(C[C@H]2NC[C@H](O)[C@H]2OC(=O)NCCNCCn2ccnc2)cc1` [V187637, (2R,3S,4S)-4-hydroxy-2-[(4-methoxyphenyl)methyl]pyrrolidin-3-yl N-(2-{[2-(imidazol-1-yl)ethyl]amino}ethyl)carbamate]: the IC50 in experiment [3] is 10 to 20 µM; in experiment [2] it was 20 to 30 µM.

As for `COc1ccc(C[C@H]2NC[C@H](O)[C@H]2OC(=O)NC[C@@H]2CCCO2)cc1` [V187521, (2R,3S,4S)-4-hydroxy-2-[(4-methoxyphenyl)methyl]pyrrolidin-3-yl N-[(2S)-oxolan-2-ylmethyl]carbamate; trifluoroacetic acid], the IC50 is less than 10 µM in experiment [5], less than 10 µM in experiment [4], less than 10 µM in experiment [3] and 10 to 20 µM in experiment [2].
